From PMC5736175, “Nicotinic alpha 7 receptor agonists EVP-6124 and BMS-933043, attenuate scopolamine-induced deficits in visuo-spatial paired associates learning” (PLoS ONE, 2017)
Where “and” joins values, the source holds several entries; their conditions need not be identical. Equal entries are not always repeated. Entries after “also recorded” stand apart in the source; their conditions may differ.

Columns and labels:
5-HT3 receptor = conditions: cited from earlier work
[1] = tested on: scopolamine-treated cynomolgus monkeys; test: Scopolamine-induced impairment of vsPAL task performance, treatment + scopolamine; type: in vivo, cynomolgus monkeys (Macaca Fasicularis); conditions: for Cohen's d / effect r: eventual accuracy, 4-stimuli; for mean (cohen's d calculations): eventual correct; for % Completion / Average Response Latency (Avg Rsp Lat) / Eventual Correct, 2 Stimuli / Eventual Correct, 3 Stimuli / Eventual Correct, 4 Stimuli / Eventual Correct, Overall Mean % Correct / Initial Correct, 3 Stimuli / Initial Correct, 4 Stimuli / Initial Correct, Overall Mean % Correct / Initial correct, 2 Stimuli: im + Scopolamine
[2] = 0.03 mg/kg + scopolamine vs vehicle+scopolamine
[3] = 0.1 mg/kg + scopolamine vs vehicle+scopolamine
[4] = 0.3 mg/kg + scopolamine vs vehicle+scopolamine
[5] = BMS-933043 0.03 mg/kg, group MEAN
[6] = BMS-933043 0.03 mg/kg, individual animals, 0.03 mg/kg
[7] = BMS-933043 0.1 mg/kg, group MEAN
[8] = BMS-933043 0.1 mg/kg, individual animals, 0.1 mg/kg
[9] = BMS-933043 0.3 mg/kg, group MEAN

c1cn(-c2cc(NC3=NC[C@@]4(CN5CCC4CC5)O3)ncn2)cn1 [BMS-933043, (2R)-N-(6-(1H-imidazol-1-yl)-4-pyrimidinyl)-4'H-spiro[4-azabicyclo[2.2.2]octane-2,5'-[1, 3]oxazol]-2'-amine]
selectivity for nAChR α7 versus the 5-HT3 receptor (5-HT3 receptor): highly selective | Cohen's d [1, 2]: 0.64 | effect r [1, 2]: 0.306 | Cohen's d ([1]; 0.03 mg/kg + scopolamine vs vehicle+scopolamine, listed as 933043): 0.643 | Cohen's d [1, 3]: 0.73 | effect r [1, 3]: 0.343 | Cohen's d ([1]; 0.1 mg/kg + scopolamine vs vehicle+scopolamine, listed as 933043): 0.7311 | Cohen's d [1, 4]: 1.2 | effect r [1, 4]: 0.51 | effect on scopolamine-induced impairment of eventual accuracy ([1]; 0.03, 0.1 and 0.3 mg/kg i.m., 4-stimuli condition): significantly ameliorated; also recorded: significantly reversed | mean (cohen's d calculations) ([1]; 0.03 mpk + scop, 4-stimuli condition): 81.7 | mean (cohen's d calculations) ([1]; 0.1 mpk + scop, 4-stimuli condition): 81.4 | mean (cohen's d calculations) ([1]; 0.3 mpk + scop, 4-stimuli condition): 90.0 | % Completion [1, 5]: 80.9% | Average Response Latency (Avg Rsp Lat) [1, 5]: 2008.1 ms | Eventual Correct, 2 Stimuli [1, 5]: 100.0% | Eventual Correct, 3 Stimuli [1, 5]: 88.6% | Eventual Correct, 4 Stimuli [1, 5]: 81.7% | Eventual Correct, Overall Mean % Correct [1, 5]: 89.8% | Initial Correct, 3 Stimuli [1, 5]: 58.6% | Initial Correct, 4 Stimuli [1, 5]: 38.3% | Initial Correct, Overall Mean % Correct [1, 5]: 63.6% | Initial correct, 2 Stimuli [1, 5]: 90.0% | Eventual Correct, 2 Stimuli ([1]; BMS-933043 0.03 mg/kg, individual animals): 100.0% | % Completion [1, 6]: 81.8% and 100.0% and 81.3% and 32.1% and 72.4% and 98.5% | Average Response Latency (Avg Rsp Lat) [1, 6]: 2181.5 ms and 1558.2 ms and 1198.4 ms and 2787.4 ms and 1505.0 ms and 2151.4 ms and 2675.1 ms | Eventual Correct, 3 Stimuli [1, 6]: 90.0% and 100.0% and 50.0% | Eventual Correct, 4 Stimuli [1, 6]: 100.0% and 90.0% and 40.0% and 80.0% | Eventual Correct, Overall Mean % Correct [1, 6]: 96.7% and 76.7% and 100.0% and 75.0% and 90.0% and 93.3% | Initial Correct, 3 Stimuli [1, 6]: 70.0% and 60.0% and 40.0% and 80.0% and 20.0% | Initial Correct, 4 Stimuli [1, 6]: 40.0% and 10.0% and 80.0% and 20.0% | Initial Correct, Overall Mean % Correct [1, 6]: 70.0% and 66.7% and 56.7% and 76.7% and 65.0% and 40.0% | Initial correct, 2 Stimuli [1, 6]: 100.0% and 90.0% and 80.0% | % Completion [1, 7]: 84.8% | Average Response Latency (Avg Rsp Lat) [1, 7]: 1958.7 ms | Eventual Correct, 2 Stimuli [1, 7]: 100.0% | Eventual Correct, 3 Stimuli [1, 7]: 98.6% | Eventual Correct, 4 Stimuli [1, 7]: 81.4% | Eventual Correct, Overall Mean % Correct [1, 7]: 93.3% | Initial Correct, 3 Stimuli [1, 7]: 75.7% | Initial Correct, 4 Stimuli [1, 7]: 35.7% | Initial Correct, Overall Mean % Correct [1, 7]: 66.7% | Initial correct, 2 Stimuli [1, 7]: 88.6% | Eventual Correct, 2 Stimuli ([1]; BMS-933043 0.1 mg/kg, individual animals): 100.0% | % Completion [1, 8]: 83.0% and 98.5% and 77.8% and 81.4% and 55.7% and 97.1% and 100.0% | Average Response Latency (Avg Rsp Lat) [1, 8]: 1783.8 ms and 1549.9 ms and 1223.3 ms and 2854.5 ms and 1899.4 ms and 1717.2 ms and 2683.0 ms | Eventual Correct, 3 Stimuli [1, 8]: 90.0% and 100.0% | Eventual Correct, 4 Stimuli [1, 8]: 90.0% and 80.0% and 70.0% and 60.0% and 100.0% | Eventual Correct, Overall Mean % Correct [1, 8]: 93.3% and 90.0% and 86.7% and 100.0% and 96.7% | Initial Correct, 3 Stimuli [1, 8]: 80.0% and 60.0% and 70.0% and 90.0% and 100.0% | Initial Correct, 4 Stimuli [1, 8]: 50.0% and 10.0% and 40.0% and 30.0% and 70.0% | Initial Correct, Overall Mean % Correct [1, 8]: 76.7% and 53.3% and 66.7% and 90.0% and 60.0% | Initial correct, 2 Stimuli [1, 8]: 100.0% and 90.0% and 80.0% | % Completion [1, 9]: 86.7% | Average Response Latency (Avg Rsp Lat) [1, 9]: 1774.3 ms | Eventual Correct, 2 Stimuli [1, 9]: 100.0% | Eventual Correct, 3 Stimuli [1, 9]: 94.3% | Eventual Correct, 4 Stimuli [1, 9]: 90.0% | Eventual Correct, Overall Mean % Correct [1, 9]: 94.3% | Initial Correct, 3 Stimuli [1, 9]: 68.6% | Initial Correct, 4 Stimuli [1, 9]: 45.0% | Initial Correct, Overall Mean % Correct [1, 9]: 67.6% | Initial correct, 2 Stimuli [1, 9]: 91.4% | Eventual Correct, 2 Stimuli ([1]; BMS-933043 0.3 mg/kg, individual animals): 100.0%
